Results from ChEMBL document CHEMBL5537135, “Novel antimicrobial peptides modified with fluorinated sulfono-γ-AA having high stability and targeting multidrug-resistant bacteria infections” (Eur J Med Chem, 2024).
In brackets after ≈: the same amount, converted by molar mass. Numbered stars: 1 amine (or outer) side, 2 acyl side, 3 side chain; on linkers, the order of the positions; unused ones are H or OH. Square brackets hold non-standard residues; d marks the D form. Peptide text beside a SMILES is read from it. * marks the point of attachment. X8 = NC(=O)CN(C[C@H](Cc1ccccc1)N*)S(=O)(=O)c1cc(C(F)(F)F)cc(C(F)(F)F)c1; X6 = CC(C)C[C@@H](CN(CC(N)=O)S(=O)(=O)c1cc(C(F)(F)F)cc(C(F)(F)F)c1)N*; X5 = NC(=O)CN(C[C@H](Cc1ccccc1)N*)S(=O)(=O)c1ccc(C(F)(F)F)cc1; X4 = N[C@@H](Cc1ccccc1)CN(CC(=O)[*:2])[*:1]; X7 = O=S(=O)(c1cc(C(F)(F)F)cc(C(F)(F)F)c1)*; X1 = O=S(=O)(c1ccc(C(F)(F)F)cc1)*

Legend:
Acinetobacter baumannii = assay: Antimicrobial activity against Acinetobacter baumannii ATCC 19606 assessed as inhibition of visible bacterial growth incubated for 18 hrs by broth-dilution method; assay type: functional
Bacillus subtilis = assay: Antimicrobial activity against Bacillus subtilis ATCC 23857 assessed as inhibition of visible bacterial growth incubated for 18 hrs by broth-dilution method; assay type: functional
Escherichia coli = assay: Antimicrobial activity against Escherichia coli ATCC 25922 assessed as inhibition of visible bacterial growth incubated for 18 hrs by broth-dilution method; assay type: functional
Staphylococcus aureus [1] = assay: Antimicrobial activity against Staphylococcus aureus ATCC 25923 assessed as inhibition of visible bacterial growth incubated for 18 hrs by broth-dilution method; assay type: functional
Staphylococcus aureus [2] = assay: Antimicrobial activity against methicillin-resistant Staphylococcus aureus ATCC 33591 assessed as inhibition of visible bacterial growth incubated for 18 hrs by broth-dilution method; assay type: functional
Erythrocyte = assay: Hemolytic activity against mouse Red blood cell incubated for 1 hr; assay type: toxicity, cell-based
Pseudomonas aeruginosa [3] = assay: Antimicrobial activity against Pseudomonas aeruginosa ATCC 27853 assessed as inhibition of visible bacterial growth incubated for 18 hrs by broth-dilution method; assay type: functional
Salmonella typhimurium = assay: Antimicrobial activity against Salmonella typhimurium ATCC 14028 assessed as inhibition of visible bacterial growth incubated for 18 hrs by broth-dilution method; assay type: functional, Salmonella enterica subsp. enterica serovar Typhimurium; conditions: Salmonella enterica
[4] = system: Staphylococcus epidermidis; assay: Antimicrobial activity against Staphylococcus epidermidis ATCC 12228 assessed as inhibition of visible bacterial growth incubated for 18 hrs by broth-dilution method; assay type: functional
[5] = Stability in human serum assessed as half life measured for 5 hrs by RP-HPLC analysis; assay type: ADME, cell-free
Staphylococcus aureus [6] = assay: Antimicrobial activity against Staphylococcus aureus ATCC 25923 assessed as fold change in MIC in presence of salt solution; assay type: functional
Staphylococcus aureus [7] = assay: Antimicrobial activity against Staphylococcus aureus ATCC 25923 assessed as reduction in bacterial growth in presence of Ca2+; assay type: functional
Staphylococcus aureus [8] = assay: Antimicrobial activity against methicillin-resistant Staphylococcus aureus 10 assessed as inhibition of visible bacterial growth incubated for 18 hrs by broth-dilution method; assay type: functional
Staphylococcus aureus [9] = assay: Antimicrobial activity against methicillin-resistant Staphylococcus aureus 2 assessed as inhibition of visible bacterial growth incubated for 18 hrs by broth-dilution method; assay type: functional
Staphylococcus aureus [10] = assay: Antimicrobial activity against methicillin-resistant Staphylococcus aureus 7 assessed as inhibition of visible bacterial growth incubated for 18 hrs by broth-dilution method; assay type: functional
Staphylococcus aureus [11] = assay: Antimicrobial activity against methicillin-resistant Staphylococcus aureus 9 assessed as inhibition of visible bacterial growth incubated for 18 hrs by broth-dilution method; assay type: functional
Staphylococcus aureus [12] = assay: Antimicrobial activity against methicillin-resistant Staphylococcus aureus 5 assessed as inhibition of visible bacterial growth incubated for 18 hrs by broth-dilution method; assay type: functional
Staphylococcus aureus [13] = assay: Antimicrobial activity against methicillin-resistant Staphylococcus aureus 3 assessed as inhibition of visible bacterial growth incubated for 18 hrs by broth-dilution method; assay type: functional
Staphylococcus aureus [14] = assay: Antimicrobial activity against methicillin-resistant Staphylococcus aureus 1 assessed as inhibition of visible bacterial growth incubated for 18 hrs by broth-dilution method; assay type: functional
Staphylococcus aureus [15] = assay: Antimicrobial activity against methicillin-resistant Staphylococcus aureus 8 assessed as inhibition of visible bacterial growth incubated for 18 hrs by broth-dilution method; assay type: functional
Staphylococcus aureus [16] = assay: Antimicrobial activity against methicillin-resistant Staphylococcus aureus 4 assessed as inhibition of visible bacterial growth incubated for 18 hrs by broth-dilution method; assay type: functional
Staphylococcus aureus [17] = assay: Antimicrobial activity against methicillin-resistant Staphylococcus aureus 6 assessed as inhibition of visible bacterial growth incubated for 18 hrs by broth-dilution method; assay type: functional
Pseudomonas aeruginosa [18] = assay: Antimicrobial activity against multidrug-resistant Pseudomonas aeruginosa 061 assessed as inhibition of visible bacterial growth incubated for 18 hrs by broth-dilution method; assay type: functional
Pseudomonas aeruginosa [19] = assay: Antimicrobial activity against multidrug-resistant Pseudomonas aeruginosa 125 assessed as inhibition of visible bacterial growth incubated for 18 hrs by broth-dilution method; assay type: functional
Pseudomonas aeruginosa [20] = assay: Antimicrobial activity against multidrug-resistant Pseudomonas aeruginosa 119 assessed as inhibition of visible bacterial growth incubated for 18 hrs by broth-dilution method; assay type: functional
Pseudomonas aeruginosa [21] = assay: Antimicrobial activity against multidrug-resistant Pseudomonas aeruginosa 516 assessed as inhibition of visible bacterial growth incubated for 18 hrs by broth-dilution method; assay type: functional
Pseudomonas aeruginosa [22] = assay: Antimicrobial activity against multidrug-resistant Pseudomonas aeruginosa 073 assessed as inhibition of visible bacterial growth incubated for 18 hrs by broth-dilution method; assay type: functional
Pseudomonas aeruginosa [23] = assay: Antimicrobial activity against multidrug-resistant Pseudomonas aeruginosa 157 assessed as inhibition of visible bacterial growth incubated for 18 hrs by broth-dilution method; assay type: functional
Pseudomonas aeruginosa [24] = assay: Antimicrobial activity against multidrug-resistant Pseudomonas aeruginosa 050 assessed as inhibition of visible bacterial growth incubated for 18 hrs by broth-dilution method; assay type: functional
Pseudomonas aeruginosa [25] = assay: Antimicrobial activity against multidrug-resistant Pseudomonas aeruginosa 156 assessed as inhibition of visible bacterial growth incubated for 18 hrs by broth-dilution method; assay type: functional
Pseudomonas aeruginosa [26] = assay: Antimicrobial activity against multidrug-resistant Pseudomonas aeruginosa 085 assessed as inhibition of visible bacterial growth incubated for 18 hrs by broth-dilution method; assay type: functional
Pseudomonas aeruginosa [27] = assay: Antimicrobial activity against multidrug-resistant Pseudomonas aeruginosa 124 assessed as inhibition of visible bacterial growth incubated for 18 hrs by broth-dilution method; assay type: functional

| Compound | MIC (Acinetobacter baumannii) [µg/mL] | MIC (Bacillus subtilis) [µg/mL] | MIC (Escherichia coli) [µg/mL] | MIC (Staphylococcus aureus [1]) [µg/mL] | MIC (Staphylococcus aureus [2]) [µg/mL] | MHC (Erythrocyte) [µg/mL] | MIC (Pseudomonas aeruginosa [3]) [µg/mL] | MIC (Salmonella typhimurium) [µg/mL] | MIC [4] [µg/mL] | half-life [5] [h] | fold change (FC) (Staphylococcus aureus [6]) | MIC (Staphylococcus aureus [7]) [µg/mL] | other results |
| --- | --- | --- | --- | --- | --- | --- | --- | --- | --- | --- | --- | --- | --- |
| CC(C)C[C@H](NC(=O)[C@H](C)NC(=O)[C@H](CCCCN)NC(=O)[C@H](CC(C)C)NC(=O)[C@@H](N)Cc1ccccc1)C(=O)N[C@@H](CCCCN)C(=O)N[C@@H](CCCCN)C(=O)N[C@@H](Cc1ccccc1)CN(CC(N)=O)S(=O)(=O)c1cc(C(F)(F)F)cc(C(F)(F)F)c1 (H-FLKALKK-X8) | 128 (≈ 97.5 µM) | 16 (≈ 12.2 µM) | 32 (≈ 24.4 µM) | 16 (≈ 12.2 µM) | 16 (≈ 12.2 µM) | 256 | 16 (≈ 12.2 µM) | 32 (≈ 24.4 µM) | 16 (≈ 12.2 µM) |  |  |  |  |
| CC(C)C[C@H](NC(=O)[C@H](CC(C)C)NC(=O)[C@H](CCCCN)NC(=O)[C@H](CC(C)C)NC(=O)[C@@H](N)Cc1ccccc1)C(=O)N[C@@H](CCCCN)C(=O)N[C@@H](CCCCN)C(=O)N[C@@H](Cc1ccccc1)CN(CC(N)=O)S(=O)(=O)c1ccc(C(F)(F)F)cc1 (H-FLKLLKK-X5) | 16 (≈ 12.4 µM) | 4 (≈ 3.11 µM) | 32 (≈ 24.9 µM) | 8 (≈ 6.22 µM) | 8 (≈ 6.22 µM) | 128 | 8 (≈ 6.22 µM) | 16 (≈ 12.4 µM) | 4 (≈ 3.11 µM) | 2.61 | 0.25 | 32 |  |
| CC(C)C[C@@H](CN(CC(N)=O)S(=O)(=O)c1cc(C(F)(F)F)cc(C(F)(F)F)c1)NC(=O)[C@H](CCCCN)NC(=O)[C@H](CCCCN)NC(=O)[C@H](CC(C)C)NC(=O)[C@H](CC(C)C)NC(=O)[C@H](CCCCN)NC(=O)[C@H](CC(C)C)NC(=O)[C@@H](N)Cc1ccccc1 (H-FLKLLKK-X6) | 8 (≈ 6.06 µM) | 16 (≈ 12.1 µM) | 8 (≈ 6.06 µM) | 8 (≈ 6.06 µM) | 4 (≈ 3.03 µM) | 128 | 8 (≈ 6.06 µM) | 8 (≈ 6.06 µM) | 16 (≈ 12.1 µM) | 2.24 | 0.25 | 32 |  |
| CC(C)C[C@H](NC(=O)[C@H](CC(C)C)NC(=O)[C@H](CCCCN)NC(=O)[C@H](CC(C)C)NC(=O)[C@@H](N)Cc1ccccc1)C(=O)N[C@@H](CCCCN)C(=O)N[C@@H](CCCCN)C(=O)N[C@@H](Cc1ccccc1)CN(CC(N)=O)S(=O)(=O)c1cc(C(F)(F)F)cc(C(F)(F)F)c1 (H-FLKLLKK-X8) | 16 (≈ 11.8 µM) | 4 (≈ 2.95 µM) | 8 (≈ 5.91 µM) | 4 (≈ 2.95 µM) | 4 (≈ 2.95 µM) | 64 | 16 (≈ 11.8 µM) | 8 (≈ 5.91 µM) | 4 (≈ 2.95 µM) | 3.31 |  |  |  |
| CC(C)C[C@H](NC(=O)[C@H](CC(C)C)NC(=O)[C@H](CCCCN)NC(=O)[C@H](CCCCN)NC(=O)[C@H](CC(C)C)NC(=O)[C@H](CC(C)C)NC(=O)[C@H](CCCCN)NC(=O)CN(C[C@@H](N)Cc1ccccc1)S(=O)(=O)c1ccc(C(F)(F)F)cc1)C(N)=O (X1-[X4]KLLKKLL-NH2) | 16 (≈ 12.8 µM) | 4 (≈ 3.19 µM) | 8 (≈ 6.39 µM) | 8 (≈ 6.39 µM) | 4 (≈ 3.19 µM) | 32 | 8 (≈ 6.39 µM) | 8 (≈ 6.39 µM) | 4 (≈ 3.19 µM) | 7.96 | 0.25 | 32 |  |
| CC(C)C[C@H](NC(=O)[C@H](CC(C)C)NC(=O)[C@H](CCCCN)NC(=O)[C@H](CCCCN)NC(=O)[C@H](CC(C)C)NC(=O)[C@H](C)NC(=O)[C@H](CCCCN)NC(=O)CN(C[C@@H](N)Cc1ccccc1)S(=O)(=O)c1cc(C(F)(F)F)cc(C(F)(F)F)c1)C(N)=O (X7-[X4]KALKKLL-NH2) | 16 (≈ 12.5 µM) | 4 (≈ 3.13 µM) | 16 (≈ 12.5 µM) | 8 (≈ 6.26 µM) | 8 (≈ 6.26 µM) | 128 | 16 (≈ 12.5 µM) | 8 (≈ 6.26 µM) | 8 (≈ 6.26 µM) |  |  |  |  |
| CC(C)C[C@H](NC(=O)[C@H](CC(C)C)NC(=O)[C@H](CCCCN)NC(=O)[C@H](CCCCN)NC(=O)[C@H](CC(C)C)NC(=O)[C@H](CC(C)C)NC(=O)[C@H](CCCCN)NC(=O)CN(C[C@@H](N)Cc1ccccc1)S(=O)(=O)c1cc(C(F)(F)F)cc(C(F)(F)F)c1)C(N)=O (X7-[X4]KLLKKLL-NH2) | 16 (≈ 12.1 µM) | 4 (≈ 3.03 µM) | 8 (≈ 6.06 µM) | 4 (≈ 3.03 µM) | 8 (≈ 6.06 µM) | 32 | 8 (≈ 6.06 µM) | 8 (≈ 6.06 µM) | 8 (≈ 6.06 µM) | 5.6 |  |  |  |
| CC1(C)S[C@@H]2[C@H](NC(=O)[C@H](N)c3ccc(O)cc3)C(=O)N2[C@H]1C(=O)O [AMOXICILLIN] | 128 (≈ 350 µM) | 256 (≈ 701 µM) | 4 (≈ 10.9 µM) | 1 (≈ 2.74 µM) | 128 (≈ 350 µM) |  | 256 (≈ 701 µM) | 256 (≈ 701 µM) | 256 (≈ 701 µM) |  |  |  | MIC (Staphylococcus aureus [8]): 32 µg/mL (≈ 87.6 µM); MIC (Staphylococcus aureus [9]): 4 µg/mL (≈ 10.9 µM); MIC (Staphylococcus aureus [10]): 16 µg/mL (≈ 43.8 µM); MIC (Staphylococcus aureus [11]): 8 µg/mL (≈ 21.9 µM); MIC (Staphylococcus aureus [12]): 32 µg/mL (≈ 87.6 µM); MIC (Staphylococcus aureus [13]): 4 µg/mL (≈ 10.9 µM); MIC (Staphylococcus aureus [14]): 4 µg/mL (≈ 10.9 µM); MIC (Staphylococcus aureus [15]): 4 µg/mL (≈ 10.9 µM); MIC (Staphylococcus aureus [16]): 8 µg/mL (≈ 21.9 µM); MIC (Staphylococcus aureus [17]): 32 µg/mL (≈ 87.6 µM) |
| H-FLKLLKKLL-NH2 | 16 | 4 | 32 | 16 | 16 | 256 | 8 | 16 | 16 | 1.09 |  |  | MIC (Staphylococcus aureus [8]): 4 µg/mL; MIC (Pseudomonas aeruginosa [18]): 8 µg/mL; MIC (Staphylococcus aureus [9]): 8 µg/mL; MIC (Staphylococcus aureus [10]): 4 µg/mL; MIC (Pseudomonas aeruginosa [19]): 8 µg/mL; MIC (Pseudomonas aeruginosa [20]): 4 µg/mL; MIC (Staphylococcus aureus [11]): 4 µg/mL; MIC (Pseudomonas aeruginosa [21]): 8 µg/mL; MIC (Pseudomonas aeruginosa [22]): 8 µg/mL; MIC (Staphylococcus aureus [12]): 8 µg/mL; MIC (Staphylococcus aureus [13]): 4 µg/mL; MIC (Staphylococcus aureus [14]): 4 µg/mL; MIC (Staphylococcus aureus [15]): 8 µg/mL; MIC (Staphylococcus aureus [16]): 8 µg/mL; MIC (Staphylococcus aureus [17]): 8 µg/mL; MIC (Pseudomonas aeruginosa [23]): 8 µg/mL; MIC (Pseudomonas aeruginosa [24]): 8 µg/mL; MIC (Pseudomonas aeruginosa [25]): 8 µg/mL; MIC (Pseudomonas aeruginosa [26]): 8 µg/mL; MIC (Pseudomonas aeruginosa [27]): 8 µg/mL |
